Source: patent US6423689B1, “Peptidyl calcium channel blockers” (Warner-Lambert Company, priority 1997, dated 2002)

Key:
[1] = molecular target: T1, L-type Ca2+ channels in A10 cells (Rattus norvegicus, UniProt P22002); assay: Inhibition of L-type calcium flux in A10 cells (FLIPR); type: cell-based
T1 construct: which endogenously expresses L-type calcium channels; host or cells: A10 rat aortic smooth muscle cells
Experimental: Measurement of L-type Ca^2+ Channel Blocking Potencies of Compounds in A10 cells
Calcium flux through voltage-sensitive calcium channels was assessed by time-resolved monitoring of the fluorescence of pre-loaded calcium-sensitive dyes using FLIPR, a fluorescent image plate reader (Molecular Devices Co.). The A10 smooth muscle cell line derived from embryonic thoracic aorta of the DBIX rat (ATCC, CRL-1476) which endogenously expresses L-type calcium channels. The growth media for A10 cells was Ham's F12/DME high glucose (Irvine Scientific, 9052), supplemented with 20% fetal bovine serum (HyClone Labs, A-1115-L), and 1% each of L-glutamine and antibiotic-antimycotic (same source as above).
Cells were grown to confluency and replated on black-sided 96-well plates (Costar, 3603) for use in FLIPR. Two days after replating, growth media was removed and cells were loaded at 37° C. with 100 μL media containing 1 μM Oregon Green 488 Bapta-1 dye (Molecular Probes, O-6807) for 1 to 3 hours. The dye-containing media was then washed away with buffer (composition in mM: 1.25 CaCl2, 1.2 MgSO4, 11 glucose, 10 HEPES, 3.0 KCl, 137.0 NaCl, pH 7.4 with Tris base) in a Denley Cellwash (Labsystems, CW018B). The residual buffer volume was adjusted to 50 μL. A 5 minute drug-pre-incubation period at 35° C. was initiated when 50 μL of drug-containing buffer was pipetted into the cell plate with the 96-well pipettor integrated in the FLIPR apparatus. Fluorescent counts were monitored at 20 second intervals for 360 seconds, beginning 60 seconds prior to the delivery of drug-containing buffer. Following drug addition, 100 μL aliquots of a high K^+, depolarizing stimulus (composition in mM: 1.25 CaCl2, 1.2 MgSO4, 11 glucose, 10 HEPES, 140.0 KCl, pH 7.4 with Tris base) were added to each well and fluorescence was monitored at 1 second intervals for 120 seconds, beginning 10 seconds prior to the stimulus addition. CCD camera exposure time was 0.4 seconds, laser excitation was at 488 nm with a power of 0.2-0.5W, and a 510 to 560 nm bandpass interference filter preceded the camera.
Data was analyzed as a summation of fluorescent counts above basal during the stimulation period (an approximation of area under the curve), after normalizing the data with a spatial uniformity correction (for variations in laser illumination and cell density) and a negative control correction (zero calcium increase defined as the fluorescence reading in the presence of saturating pharmacologic block of the respective calcium channel). Drug effects were expressed as percent inhibition of fluorescence from an average of 8 K^+-stimulated wells which were pre-treated in the drug incubation period with buffer only.
In the A10 cells, the pharmacologic agent used to define zero calcium influx was nitrendipine (RBI, N-144), at a final concentration of 1.0×10^−6 M.

[2] = molecular target: T2, N-type Ca2+ channels in IMR-32 cells (Homo sapiens, UniProt Q00975); assay: Inhibition of N-type calcium flux in IMR-32 cells (Indo-1 fluorescence, nitrendipine present); type: cell-based; conditions: for inhibition at 1 µM / inhibition at 10 µM: IMR-32; for IC50: IMR-32 cells, 5 μM nitrendipine, K+ depolarization
T2 construct: host or cells: IMR-32 cells, differentiated with dibutyryl cAMP and bromodeoxyuridine
Summary of the method: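 With L-type flux blocked by 5 μM nitrendipine, N-type Ca2+ entry was read as the Indo-1 emission ratio (400/490 nm, excitation 350 nm) at 30° C after KCl depolarization.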

[3] = system: Na+ channels in superior cervical ganglion (SCG) neurons; assay: Whole-cell voltage clamp, Na+ current in SCG neurons; type: cell-based, rat; conditions: 10 μM
Summary of the method: (§1)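 Percent inhibition of control amplitude at steady-state block is the read-out: peak inward Na+ current at 0 mV, sustained K+ current at +50 mV, 35 msec steps every 10 sec from −65 to −55 mV. Recordings used whole-cell clamp of trypsin-dissociated SCG neurons, pH 7.4 external and pipette solutions, compounds applied by local perfusion.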

[4] = system: K+ channels in superior cervical ganglion (SCG) neurons; assay: Whole-cell voltage clamp, K+ current in SCG neurons; type: cell-based, rat; conditions: 10 μM
Summary of the method: as §1

DBA/2 mice = assay: animal or person; type: in vivo; conditions: 30 mg/Kg iv, 15 min post treatment
Experimental: Audiogenic Seizure Model in DBA/2 Mice
In Vivo Biological Protocol
A compound of the present invention was dissolved in water using 10% (weight/volume) Emulphor (GAF Cop., Wayne N.J. surfactant. Substances were administered by intravenous injection the retro-orbital venous sinus. […] All the male mice, 3-4 weeks old were obtained from Jackson Laboratories Bar Harbour, Me. Immediately before anticonvulsant testing, mice were placed upon a wire mesh, 4 inches square suspended from a steel rod. The square was slowly inverted through 180 degree and mice observed for 30 seconds. Any mouse falling from the wire mesh was scored as ataxia.
Mice were placed into an enclosed acrylic plastic chamber (21 cm in height, approximately 30 cm diameter) with a high-frequency speaker (4 cm diameter) in the center of the top lid. An audio signal generator (Protek model B-810) was used to produce a continuous sinusoidal tone that was swept linearly in frequency between 8 kHz and 16 kHz once each 10 msec. The average sound pressure level (SPL) during stimulation was approximately 100 dB at the floor of the chamber. Mice were placed within the chamber and allowed to acclimatize for 1 minute. DBA/2 mice in the vehicle-treated group responded to the sound stimulus (applied until tonic extension occurred, or for a maximum of 60 sec) with a characteristic seizure sequence consisting of wild running followed by clonic seizures, and later by tonic extension, and finally by respiratory arrest and death in 80% or more of the mice. In vehicle-treated mice, the entire sequence of seizures to respiratory arrest lasts approximately 15-20 seconds.
The incidence of all the seizure phases in the drug-treated and vehicle-treated mice was recorded, and the occurrence of tonic seizures were used for calculating anticonvulsant ED50 values by probit analysis. Mice were used only once for testing at each time and dose point.

T1 sequence (P22002 whole entry): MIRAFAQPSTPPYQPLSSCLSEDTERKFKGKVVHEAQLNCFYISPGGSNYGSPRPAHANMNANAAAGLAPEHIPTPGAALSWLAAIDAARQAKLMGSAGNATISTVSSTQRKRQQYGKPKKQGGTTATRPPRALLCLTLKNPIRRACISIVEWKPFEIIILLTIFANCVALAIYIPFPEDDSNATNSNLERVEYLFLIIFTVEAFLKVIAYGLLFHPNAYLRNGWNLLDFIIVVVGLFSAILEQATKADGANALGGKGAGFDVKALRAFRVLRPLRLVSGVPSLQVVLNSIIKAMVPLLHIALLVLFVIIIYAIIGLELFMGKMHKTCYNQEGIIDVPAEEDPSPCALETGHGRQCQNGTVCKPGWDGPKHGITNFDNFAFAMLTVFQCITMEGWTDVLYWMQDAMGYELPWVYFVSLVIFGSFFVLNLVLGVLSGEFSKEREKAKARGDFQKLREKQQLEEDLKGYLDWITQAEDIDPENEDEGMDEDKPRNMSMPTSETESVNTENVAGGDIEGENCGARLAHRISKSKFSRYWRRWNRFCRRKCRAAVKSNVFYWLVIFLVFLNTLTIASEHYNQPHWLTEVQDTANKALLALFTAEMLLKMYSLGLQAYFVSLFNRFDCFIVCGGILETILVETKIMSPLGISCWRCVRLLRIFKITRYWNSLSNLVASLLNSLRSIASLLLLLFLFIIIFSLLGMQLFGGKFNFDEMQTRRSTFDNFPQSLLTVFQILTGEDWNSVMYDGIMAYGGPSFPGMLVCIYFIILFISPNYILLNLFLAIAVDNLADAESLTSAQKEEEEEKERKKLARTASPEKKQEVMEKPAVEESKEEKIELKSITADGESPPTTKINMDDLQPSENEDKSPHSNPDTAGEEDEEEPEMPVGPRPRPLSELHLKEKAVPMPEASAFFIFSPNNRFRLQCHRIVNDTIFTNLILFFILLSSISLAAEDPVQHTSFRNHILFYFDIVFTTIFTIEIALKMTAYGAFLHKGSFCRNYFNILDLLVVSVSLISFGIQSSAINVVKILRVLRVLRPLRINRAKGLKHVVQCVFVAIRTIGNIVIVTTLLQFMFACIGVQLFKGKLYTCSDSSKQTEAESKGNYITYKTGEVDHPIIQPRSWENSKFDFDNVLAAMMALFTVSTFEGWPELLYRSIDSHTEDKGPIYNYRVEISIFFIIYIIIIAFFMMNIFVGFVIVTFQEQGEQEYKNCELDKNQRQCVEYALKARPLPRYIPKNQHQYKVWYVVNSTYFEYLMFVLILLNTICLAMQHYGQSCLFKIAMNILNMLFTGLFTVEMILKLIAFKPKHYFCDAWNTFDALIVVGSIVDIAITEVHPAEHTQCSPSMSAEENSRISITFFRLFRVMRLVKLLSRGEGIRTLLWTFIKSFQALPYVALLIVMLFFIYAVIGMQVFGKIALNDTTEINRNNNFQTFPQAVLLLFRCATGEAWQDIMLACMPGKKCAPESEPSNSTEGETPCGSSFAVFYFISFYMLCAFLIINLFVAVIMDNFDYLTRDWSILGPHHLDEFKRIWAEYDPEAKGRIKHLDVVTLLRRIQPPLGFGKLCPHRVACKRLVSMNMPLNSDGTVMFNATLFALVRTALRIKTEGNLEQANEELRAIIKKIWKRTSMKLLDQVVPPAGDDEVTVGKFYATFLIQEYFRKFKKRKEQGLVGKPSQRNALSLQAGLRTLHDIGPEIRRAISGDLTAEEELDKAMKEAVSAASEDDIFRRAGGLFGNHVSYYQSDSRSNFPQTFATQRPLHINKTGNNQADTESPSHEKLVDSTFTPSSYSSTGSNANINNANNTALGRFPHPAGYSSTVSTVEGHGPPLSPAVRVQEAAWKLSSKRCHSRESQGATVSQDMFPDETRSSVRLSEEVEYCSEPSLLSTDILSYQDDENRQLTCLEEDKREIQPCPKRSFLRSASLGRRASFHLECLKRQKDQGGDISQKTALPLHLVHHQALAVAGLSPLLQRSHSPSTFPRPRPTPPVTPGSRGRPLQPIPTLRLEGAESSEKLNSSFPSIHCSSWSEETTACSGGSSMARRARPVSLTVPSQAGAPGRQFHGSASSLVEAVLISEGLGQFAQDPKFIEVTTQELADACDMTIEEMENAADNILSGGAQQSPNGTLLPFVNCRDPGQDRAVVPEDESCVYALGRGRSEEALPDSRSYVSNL
T1 sequence (P54290 25-944 partner limits assumed): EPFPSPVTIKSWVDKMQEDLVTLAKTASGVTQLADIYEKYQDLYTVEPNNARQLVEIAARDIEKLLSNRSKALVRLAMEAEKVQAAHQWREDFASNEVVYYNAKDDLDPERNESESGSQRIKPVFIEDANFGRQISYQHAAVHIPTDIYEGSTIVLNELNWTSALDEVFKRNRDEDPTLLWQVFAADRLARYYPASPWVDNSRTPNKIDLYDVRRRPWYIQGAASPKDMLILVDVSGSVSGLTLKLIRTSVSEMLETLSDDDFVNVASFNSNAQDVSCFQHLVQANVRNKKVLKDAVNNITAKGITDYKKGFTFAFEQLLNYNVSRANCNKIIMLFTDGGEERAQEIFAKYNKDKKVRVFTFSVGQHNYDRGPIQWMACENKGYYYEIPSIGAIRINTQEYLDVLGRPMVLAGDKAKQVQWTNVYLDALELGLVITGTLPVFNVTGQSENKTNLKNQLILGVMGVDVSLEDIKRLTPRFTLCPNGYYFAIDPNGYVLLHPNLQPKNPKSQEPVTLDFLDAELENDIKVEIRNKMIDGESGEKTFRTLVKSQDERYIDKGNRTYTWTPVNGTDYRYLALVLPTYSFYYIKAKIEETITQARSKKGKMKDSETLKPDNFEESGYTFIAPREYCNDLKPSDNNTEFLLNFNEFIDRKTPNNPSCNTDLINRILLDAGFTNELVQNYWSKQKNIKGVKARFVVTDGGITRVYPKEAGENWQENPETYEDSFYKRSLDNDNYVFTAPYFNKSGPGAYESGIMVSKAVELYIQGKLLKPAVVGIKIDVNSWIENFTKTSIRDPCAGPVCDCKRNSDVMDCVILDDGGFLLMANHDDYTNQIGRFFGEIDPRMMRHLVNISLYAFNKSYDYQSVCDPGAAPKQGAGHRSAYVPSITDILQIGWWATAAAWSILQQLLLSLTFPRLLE
T1 sequence (P54290 945-1091 partner limits assumed): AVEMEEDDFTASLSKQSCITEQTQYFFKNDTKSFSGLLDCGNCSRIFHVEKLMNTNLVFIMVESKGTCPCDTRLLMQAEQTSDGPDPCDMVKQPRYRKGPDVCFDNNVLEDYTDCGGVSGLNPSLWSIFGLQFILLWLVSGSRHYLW
T1 sequence (P54287 whole entry partner): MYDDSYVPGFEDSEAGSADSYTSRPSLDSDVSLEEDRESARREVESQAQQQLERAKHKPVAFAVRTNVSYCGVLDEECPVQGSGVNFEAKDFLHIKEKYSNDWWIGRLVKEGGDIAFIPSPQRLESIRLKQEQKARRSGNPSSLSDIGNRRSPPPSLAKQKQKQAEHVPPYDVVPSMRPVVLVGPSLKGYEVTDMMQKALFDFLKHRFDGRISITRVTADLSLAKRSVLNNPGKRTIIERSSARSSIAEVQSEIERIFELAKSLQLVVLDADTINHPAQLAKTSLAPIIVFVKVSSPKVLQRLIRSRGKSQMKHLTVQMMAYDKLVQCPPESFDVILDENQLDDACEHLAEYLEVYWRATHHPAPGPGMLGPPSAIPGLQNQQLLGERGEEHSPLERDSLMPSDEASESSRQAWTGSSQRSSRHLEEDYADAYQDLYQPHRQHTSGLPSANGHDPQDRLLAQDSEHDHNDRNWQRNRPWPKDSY

SMILES	melting point	IC50 [1] [nM]	inhibition at 1 µM [2] [%]	inhibition at 10 µM [2] [%]	Inhibition of Na+ Current, % Inhibition at 10 μM [3] [%]	IC50 [2] [nM]	Inhibition of K+ Current, % Inhibition at 10 μM [4] [%]	Number of Mice Protected from Tonic Convulsions (DBA/2 mice)	Inhibition of Calcium Flux in IMR-32 Cells % Inhibition at 1 μM ([2]; 1 μM) [%]	Inhibition of Calcium Flux in IMR-32 Cells % Inhibition at 10 μM ([2]; 10 μM) [%]
CC(C)C[C@H](NC(=O)N1CCCCCC1)C(=O)N[C@@H](Cc1ccc(Cc2ccccc2)cc1)C(=O)NC(C)(C)C [Example 53, [S-(R*,R*)]-Azepane-1-carboxylic acid {1-[2-(4-benzyl-phenyl)-1-tert-butylcarbamoyl-ethylcarbamoyl]-3-methyl-butyl}-amide]	165 to 166 °C	140	61	89						
CC(C)C[C@H](NC(=O)N1CCCCCC1)C(=O)N[C@@H](Cc1ccc(CCc2ccccc2)cc1)C(=O)NC(C)(C)C [Example 144, [S-(R*,R*)]-Azepane-1-carboxylic acid {1-[1-tert-butylcarbamoyl-2-(4-phenethyl-phenyl)-ethylcarbamoyl]-3-methyl-butyl}-amide]	155 to 156 °C	550	61	86						
CC(C)C[C@H](NS(=O)(=O)c1ccc(C(C)(C)C)cc1)C(=O)N[C@@H](Cc1ccc(OCc2ccccc2)cc1)C(=O)OC(C)(C)C [Example 36, [S-(R*,R*)]-3-(4-Benzyloxy-phenyl)-2(S)-[2(S)-(4-tert-butyl-benzenesulfonylamino)-4-methyl-pentanoylamino]-propionic acid tert-butyl ester]	142 to 143 °C	3000	71	86	91	170	92			
CC(C)C[C@H](NC(=O)N1CCCCCC1)C(=O)N[C@@H](Cc1ccc(NCc2ccccc2)cc1)C(=O)NC(C)(C)C [Example 132, [S-(R*,R*)]-Azepane-1-carboxylic acid {1-[2-(4-benzylamino-phenyl)-1-tert-butylcarbamoyl-ethylcarbamoyl]-3-methyl-butyl}-amide]	89 to 90 °C	910	37	83		900				
CC(C)C[C@H](NC(=O)N1CCCCCC1)C(=O)N[C@@H](Cc1ccc(CCc2ccccn2)cc1)C(=O)NC(C)(C)C [Example 147, [S-(R*,R*)]-Azepane-1-carboxylic acid (1-{1-tert-butylcarbamoyl-2-[4-(2-pyridin-2-yl-ethyl)-phenyl]-ethylcarbamoyl}-3-methyl-butyl)-amide]	154 to 156 °C	5100	25	71						
CC(C)C[C@H](NC(=S)Nc1ccc(C(C)(C)C)cc1)C(=O)N[C@@H](Cc1ccc(OCc2ccccc2)cc1)C(=O)OC(C)(C)C (relative stereo) [Example 44, [S-(R*,R*)]-3-(4-Benzyloxy-phenyl)-2-{2-[3-(4-tert-butyl-phenyl)-thioureido]-4-methyl-pentanoylamino}-propionic acid, tert-butyl ester]								0/5	28	71
CC(C)C[C@H](NC(=O)N1CCCCCC1)C(=O)N[C@@H](Cc1ccc(CCC2CCCCC2)cc1)C(=O)NC(C)(C)C [Example 146, [S-(R*,R*)]-Azepane-1-carboxylic acid (1-{1-tert-butylcarbamoyl-2-[4-(2-cyclohexyl-ethyl)-phenyl]-ethylcarbamoyl}-3-methyl-butyl)-amide]	165 °C	220	51							
CC(C)C[C@H](NC(=O)N1CCCCCC1)C(=O)N[C@@H](Cc1ccc(C#CC2CCCCC2)cc1)C(=O)NC(C)(C)C [Example 136, [S-(R*,R*)]-Azepane-1-carboxylic acid {1-[1-tert-butylcarbamoyl-2-(4-cyclohexylethynyl-phenyl)-ethylcarbamoyl]-3-methyl-butyl}-amide]	171 to 172 °C	1550	45	64						
CC(C)C[C@H](NC(=O)N1CCCCCC1)C(=O)N[C@@H](Cc1ccc(CCC2(O)CCCCC2)cc1)C(=O)NC(C)(C)C [Example 148, [S-(R*,R*)]-Azepane-1-carboxylic acid [1-(1-tert-butylcarbamoyl-2-{4-[2-(1-hydroxy-cyclohexyl)-ethyl]-phenyl}-ethylcarbamoyl)-3-methyl-butyl]-amide]	101 to 102 °C	970	30	68						
CC(C)C[C@H](NC(=O)N1CCCCCC1)C(=O)N[C@@H](Cc1ccc(CCC(C)(C)C)cc1)C(=O)NC(C)(C)C [Example 145, [S-(R*,R*)]-Azepane-1-carboxylic acid (1-{1-tert-butylcarbamoyl-2-[4-(3,3-dimethyl-butyl)-phenyl]-ethylcarbamoyl}-3-methyl-butyl)-amide]	180 to 181 °C	250	48							
CC(C)C[C@H](NC(=O)N1CCCCCC1)C(=O)N[C@@H](Cc1ccc(C#CC(C)(C)C)cc1)C(=O)NC(C)(C)C [Example 135, [S-(R*,R*)]-Azepane-1-carboxylic acid (1-{1-tert-butylcarbamoyl-2-[4-(3,3-dimethyl-but-1-ynyl)-phenyl]-ethylcarbamoyl}-3-methyl-butyl)-amide]	180 to 181 °C	670	43	71						
CC(C)C[C@H](NC(=O)N1CCCCCC1)C(=O)N[C@@H](Cc1ccc(C=CC2(O)CCCCC2)cc1)C(=O)NC(C)(C)C [Example 143, [S-(R*,R*)]-Azepane-1-carboxylic acid [1-(1-tert-butylcarbamoyl-2-{4-[2-(1-hydroxy-cyclohexyl)-vinyl]-phenyl}-ethylcarbamoyl)-3-methyl-butyl]-amide]	125 °C (dec.)	1300	7	58						
